# Data from PubChem BioAssay AID2060509 (Molecular Pharmacology Branch, DTP, NCI, 2025).
# pIC50: −log10 of the molar value. “And” between values parts separate entries of the source, which are not always exact repeats. Equal values may be shown once.
# Test system: 485176-168-R4-J1-PDC spheroids with HUVEC/MSC, viability
# Assay: Anticancer human tumor 485176-168-R4-J1-PDC patient-derived pancreatic adenocarcinoma cell line growth inhibition [GQUAD]
# Conditions: for viability, T/C: stronger effect = lower value
# Source text: DNA G-quadruplex Stabilizer Agents in Combinations in Complex Spheroids
# A high-throughput screen of multi-cell type tumor spheroids was designed to identify active combinations of DNA G-quadruplex stabilizer agents and targeted small molecules. Complex spheroids include a stromal component modeled by human endothelial cells (HUVEC) and fibroblasts modeled by human mesenchymal stem cells (MSCs). The concentration ranges selected for each drug and investigational agent were based upon clinically achievable concentrations if the clinical Cmax of the agent was known.
# Compounds. The drugs and investigational agents: pidnarulex (CX-5461; NSC782164), APTO-253 (NSC789042), BRACO-19 (NSC847499), peposertib (NSC802822), ceralasertib (NSC780249), elimusertib (NSC800525), camonsertib (NSC841442), AZD-1390 (NSC803789), olaparib (NSC753686), talazoparib (NSC767125), ART-558 (NSC835418), sotorasib (NSC818433), MRTX-1133 (NSC836407), SN-38 (NSC673596), topotecan (NSC609699), etoposide (NSC141540), doxorubicin (NSC123127), gemcitabine (NSC613327), 5-fluorouracil (NSC19893), paclitaxel (NSC125973), vemurafenib (NSC761431), panobinostat (NSC761190), R-306465 (JNJ-16241199; NSC773264), adavosertib (NSC754352), TP-3654 (NSC805149), carboplatin (NSC241240), KSQ-4279 (NSC840948), and staurosporine (NSC755774) were obtained from the National Cancer Institute (NCI) Developmental Therapeutics Program Chemical Repository (34). The FDA-approved anticancer drug set is available from the NCI Developmental Therapeutics Program. […] The stock solutions were prepared in dimethyl sulfoxide (DMSO, Sigma-Aldrich, St. Louis, MO, cat. D2650) at 800-fold the tested concentration and stored at -70 degrees C prior to their use. All drugs and investigational agents were tested over a range starting from a high concentration at or near the clinical Cmax and decreasing in half-log increments. If the clinical Cmax for an agent had not been determined, the highest concentration tested was 10 microM.
# 2.3 Cell Culture. All cells were maintained in an incubator at 37 degrees C and 5% CO2 with 95% humidity. The PDC lines were cultured according to standard operating procedures established by the NCI PDMR. All PDCs were thawed and cultured in Matrigel-coated flasks prepared with a working solution of 1X Ham's F-12 nutrient mix, without supplementation (Invitrogen, cat. 11765054), 100 U/mL penicillin-streptomycin (Invitrogen, cat. 15140122), and 2.5% Matrigel (Corning Inc., cat. 354248) for the first three passages. The 857933-349-R-J2-PDC line was cultured in 6C/Colon 1B media, which includes advanced DMEM/F-12 (Thermo Fisher Scientific, cat. 12634028), 10 mM HEPES (Thermo Fisher Scientific, cat. 15630080), 1X GlutaMAX supplement (Thermo Fisher Scientific, cat. 35050061), 0.1 mg/mL primocin (InvivoGen, cat. ant-pm-2), 10% defined fetal bovine serum, heat inactivated (HyClone Laboratories Inc., cat. SH30070.03HI), 50% L-WRN conditioned media (ATCC, cat. CRL-3276), 1.25 mM N-Acetyl-L-cysteine (Sigma-Aldrich, cat. A9165), 10 mM nicotinamide (Sigma-Aldrich, cat. N0636), 1X B-27 supplement (Thermo Fisher Scientific, cat. 17504044), 1X N-2 supplement (Thermo Fisher Scientific, cat. 17502048), 10 microM Y-27632 dihydrochloride (Tocris Bioscience, cat. 1254), and 50 ng/mL human EGF recombinant protein (Thermo Fisher Scientific, cat. PHG0311). The 485176-168-R4-J1-PDC line was cultured in Panc media, which includes all 6C/Colon 1B media components plus 100 ng/mL human FGF-10 (Thermo Fisher Scientific, cat. 100-26), 500 nM SB-431542 (Selleckchem, cat. S1067), and gastrin (Tocris, cat. 3006).
# […]
# 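Further: spheroids exposed to compounds for seven days before readout.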
# 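Wherever viability, T/C is given: percent viability relative to DMSO vehicle control wells as 100%.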
smiles,measurement,setting,value
CC(C)(O)C1CCC(Nc2ccc3ncc(-c4cccc(C(F)(F)F)c4)n3n2)CC1 (stereo not drawn),"viability, T/C",compound 0.0316 µM,95.2% and 95.5% and 94.6%
same,"viability, T/C",compound 0.1 µM,110% and 90.6% and 87.2%
same,"viability, T/C",compound 0.316 µM,83.9% and 93.9% and 92.1%
same,"viability, T/C",compound 1 µM,84.3% and 91.6% and 77.9%
same,"viability, T/C",compound 3.16 µM,53.8% and 62.9% and 60.7%
same,"viability, T/C",compound 10 µM,57.8% and 57.9% and 56.4%
same,pIC50,curve of compound,< 5.00
CC[C@@]1(O)C(=O)OCc2c1cc1n(c2=O)Cc2cc3c(CN(C)C)c(O)ccc3nc2-1,"viability, T/C",compound 0.000999 µM,103% and 99% and 108%
same,"viability, T/C",compound 0.00316 µM,99.1% and 96.4% and 81%
same,"viability, T/C",compound 0.00999 µM,89.2% and 94.7% and 93%
same,"viability, T/C",compound 0.0316 µM,64.6% and 100% and 90.4%
same,"viability, T/C",compound 0.0999 µM,54.2% and 66.9% and 58.7%
same,"viability, T/C",compound 0.316 µM,31.3% and 35.5% (2×)
same,pIC50,curve of compound,6.99 and 6.73 and 6.81
O=C(c1cc(Cc2n[nH]c(=O)c3ccccc23)ccc1F)N1CCN(C(=O)C2CC2)CC1,"viability, T/C",compound 0.0316 µM,94.9% and 101% and 98%
same,"viability, T/C",compound 0.1 µM,100% and 97.5% and 90.3%
same,"viability, T/C",compound 0.316 µM,84.3% and 99.6% and 85.8%
same,"viability, T/C",compound 1 µM,89.3% and 98.4% and 81.9%
same,"viability, T/C",compound 3.16 µM,85.7% and 102% and 88.1%
same,"viability, T/C",compound 10 µM,80% and 77.6% and 68.8%
same,pIC50,curve of compound,< 5.00
CCc1c2c(nc3ccc(O)cc13)-c1cc3c(c(=O)n1C2)COC(=O)[C@]3(O)CC + Cc1[nH]c2ccc(F)cc2c1-c1nc2c3cccnc3c3ncccc3c2[nH]1,pIC50,"curve of first compound, second compound 0.0316 µM",8.33
same,pIC50,"curve of first compound, second compound 0.1 µM",8.25
same,pIC50,"curve of first compound, second compound 0.316 µM",8.15
same,pIC50,"curve of first compound, second compound 1 µM",8.22
same,pIC50,"curve of first compound, second compound 3.16 µM",8.14
same,pIC50,"curve of first compound, second compound 10 µM",8.39
same,"viability, T/C","second compound 0.0316 µM, first compound 0.000999 µM",76.6%
same,"viability, T/C","second compound 0.0316 µM, first compound 0.00316 µM",58.1%
same,"viability, T/C","second compound 0.0316 µM, first compound 0.00999 µM",35.2%
same,"viability, T/C","second compound 0.0316 µM, first compound 0.0316 µM",20.1%
same,"viability, T/C","second compound 0.0316 µM, first compound 0.0999 µM",17.6%
same,"viability, T/C","second compound 0.0316 µM, first compound 0.316 µM",6.23%
same,"viability, T/C","second compound 0.1 µM, first compound 0.000999 µM",78.8%
same,"viability, T/C","second compound 0.1 µM, first compound 0.00316 µM",62.2%
same,"viability, T/C","second compound 0.1 µM, first compound 0.00999 µM",35.6%
same,"viability, T/C","second compound 0.1 µM, first compound 0.0316 µM",27.4%
same,"viability, T/C","second compound 0.1 µM, first compound 0.0999 µM",10.9%
same,"viability, T/C","second compound 0.1 µM, first compound 0.316 µM",5.79%
same,"viability, T/C","second compound 0.316 µM, first compound 0.000999 µM",83.4%
same,"viability, T/C","second compound 0.316 µM, first compound 0.00316 µM",71.4%
same,"viability, T/C","second compound 0.316 µM, first compound 0.00999 µM",38.2%
same,"viability, T/C","second compound 0.316 µM, first compound 0.0316 µM",22.4%
same,"viability, T/C","second compound 0.316 µM, first compound 0.0999 µM",15.7%
same,"viability, T/C","second compound 0.316 µM, first compound 0.316 µM",3.93%
same,"viability, T/C","second compound 1 µM, first compound 0.000999 µM",71.4%
same,"viability, T/C","second compound 1 µM, first compound 0.00316 µM",60.9%
same,"viability, T/C","second compound 1 µM, first compound 0.00999 µM",41.6%
same,"viability, T/C","second compound 1 µM, first compound 0.0316 µM",23.8%
same,"viability, T/C","second compound 1 µM, first compound 0.0999 µM",12.5%
same,"viability, T/C","second compound 1 µM, first compound 0.316 µM",7.51%
same,"viability, T/C","second compound 3.16 µM, first compound 0.000999 µM",98.3%
same,"viability, T/C","second compound 3.16 µM, first compound 0.00316 µM",73.2%
same,"viability, T/C","second compound 3.16 µM, first compound 0.00999 µM",38.1%
same,"viability, T/C","second compound 3.16 µM, first compound 0.0316 µM",24.4%
same,"viability, T/C","second compound 3.16 µM, first compound 0.0999 µM",13.3%
same,"viability, T/C","second compound 3.16 µM, first compound 0.316 µM",5.95%
same,"viability, T/C","second compound 10 µM, first compound 0.000999 µM",76.1%
same,"viability, T/C","second compound 10 µM, first compound 0.00316 µM",50%
same,"viability, T/C","second compound 10 µM, first compound 0.00999 µM",37.8%
same,"viability, T/C","second compound 10 µM, first compound 0.0316 µM",27.7%
same,"viability, T/C","second compound 10 µM, first compound 0.0999 µM",10.8%
same,"viability, T/C","second compound 10 µM, first compound 0.316 µM",6.05%
